Test results taken from ChEMBL document CHEMBL1201862, “PubChem BioAssay data set” (2004).
Calls of active or inactive are those of the source.

Tests used:
[1] = target: T1, Rac GTPase-activating protein 1 (Homo sapiens, UniProt Q9H0H5); assay: MgcRacGAP GTPase-activating activity inhibitors, confirmation, biochemical, ADP Hunter fluorescence, primary and confirmatory (AID 624330); format: functional
T1 sequence (Q9H0H5 whole entry): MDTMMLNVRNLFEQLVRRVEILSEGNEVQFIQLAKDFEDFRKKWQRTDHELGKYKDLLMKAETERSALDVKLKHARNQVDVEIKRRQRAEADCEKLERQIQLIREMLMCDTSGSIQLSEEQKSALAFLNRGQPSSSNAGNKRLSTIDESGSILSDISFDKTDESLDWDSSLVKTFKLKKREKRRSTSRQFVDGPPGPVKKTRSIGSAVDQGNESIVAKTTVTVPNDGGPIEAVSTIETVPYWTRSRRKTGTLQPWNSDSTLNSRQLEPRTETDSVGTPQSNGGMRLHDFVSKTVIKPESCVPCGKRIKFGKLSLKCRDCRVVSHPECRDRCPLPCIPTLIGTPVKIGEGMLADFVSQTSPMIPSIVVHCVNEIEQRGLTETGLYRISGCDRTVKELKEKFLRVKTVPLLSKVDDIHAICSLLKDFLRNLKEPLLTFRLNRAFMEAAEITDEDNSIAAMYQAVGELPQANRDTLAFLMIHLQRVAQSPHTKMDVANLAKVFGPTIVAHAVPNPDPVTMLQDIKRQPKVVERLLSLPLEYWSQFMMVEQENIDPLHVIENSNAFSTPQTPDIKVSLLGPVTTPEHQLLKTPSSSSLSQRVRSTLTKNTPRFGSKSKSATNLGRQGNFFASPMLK

[2] = target: T2, Protein skinhead-1 (Caenorhabditis elegans, UniProt P34707); format: functional
T2 sequence (P34707 whole entry): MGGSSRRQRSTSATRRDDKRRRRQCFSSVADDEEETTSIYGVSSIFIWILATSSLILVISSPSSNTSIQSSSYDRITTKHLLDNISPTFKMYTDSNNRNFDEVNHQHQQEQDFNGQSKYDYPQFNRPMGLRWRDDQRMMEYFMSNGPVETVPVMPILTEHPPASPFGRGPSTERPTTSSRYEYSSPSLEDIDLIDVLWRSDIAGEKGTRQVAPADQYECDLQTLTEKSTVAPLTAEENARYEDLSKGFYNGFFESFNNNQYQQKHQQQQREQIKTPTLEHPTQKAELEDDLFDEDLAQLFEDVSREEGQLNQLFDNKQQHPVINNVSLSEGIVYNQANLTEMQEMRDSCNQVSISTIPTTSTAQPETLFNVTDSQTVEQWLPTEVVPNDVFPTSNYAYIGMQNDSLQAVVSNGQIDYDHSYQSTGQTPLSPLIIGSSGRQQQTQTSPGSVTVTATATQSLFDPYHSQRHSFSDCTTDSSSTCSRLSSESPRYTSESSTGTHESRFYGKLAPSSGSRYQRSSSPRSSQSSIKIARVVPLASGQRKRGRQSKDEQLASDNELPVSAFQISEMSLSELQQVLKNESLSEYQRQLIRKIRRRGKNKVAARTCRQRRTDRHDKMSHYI

[3] = inhibitors of firefly luciferase expression or activity, dose response, H4 neuroglioma cells, luminescence (AID 1990); format: functional, cell-based
[4] = Luminescence Cell-Based Dose Response HTS to Identify Inhibitors of 5'UTR Stem-Loop Driven Prion Protein mRNA Translation in H4 Neuroglioblastoma Cells. [Related pubchem assays: 1827 (Project Summary), 1813 (Primary HTS)]; format: functional
[5] = inhibitors of SNCA 5'UTR-driven reporter translation, confirmation, H4 neuroglioma cells, luminescence (AID 1988); format: functional, cell-based
[6] = target: T3, Replicative DNA helicase DnaB (Mycobacterium tuberculosis, UniProt P9WMR3); assay: DnaB intein splicing inhibitors, dose response, biochemical, cell-free fluorescence (AID 449749); format: functional
T3 sequence (P9WMR3 whole entry): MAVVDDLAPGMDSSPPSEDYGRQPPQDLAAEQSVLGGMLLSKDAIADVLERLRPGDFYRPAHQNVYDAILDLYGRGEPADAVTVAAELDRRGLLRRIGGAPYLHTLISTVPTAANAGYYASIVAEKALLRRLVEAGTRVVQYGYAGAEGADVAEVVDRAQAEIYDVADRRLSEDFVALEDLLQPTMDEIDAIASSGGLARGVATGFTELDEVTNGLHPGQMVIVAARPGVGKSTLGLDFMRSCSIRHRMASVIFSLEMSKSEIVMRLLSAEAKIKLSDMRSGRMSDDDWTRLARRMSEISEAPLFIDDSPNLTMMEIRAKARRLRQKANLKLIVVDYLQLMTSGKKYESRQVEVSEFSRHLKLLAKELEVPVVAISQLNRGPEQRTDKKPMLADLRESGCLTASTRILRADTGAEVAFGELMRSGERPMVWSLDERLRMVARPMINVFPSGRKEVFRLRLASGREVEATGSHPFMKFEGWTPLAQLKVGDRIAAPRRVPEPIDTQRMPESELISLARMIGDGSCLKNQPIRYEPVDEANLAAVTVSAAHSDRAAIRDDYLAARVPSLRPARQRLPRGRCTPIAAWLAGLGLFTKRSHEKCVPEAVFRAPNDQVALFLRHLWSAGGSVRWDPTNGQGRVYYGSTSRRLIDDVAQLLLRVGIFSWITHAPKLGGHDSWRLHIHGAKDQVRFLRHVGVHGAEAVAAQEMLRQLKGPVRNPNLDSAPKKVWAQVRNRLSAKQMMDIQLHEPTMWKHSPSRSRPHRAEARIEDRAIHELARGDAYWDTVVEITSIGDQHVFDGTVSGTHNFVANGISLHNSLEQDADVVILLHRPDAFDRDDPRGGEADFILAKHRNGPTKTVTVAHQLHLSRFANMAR

[7] = target: T4, Protein RecA (Mycobacterium tuberculosis, UniProt P9WHJ3); assay: Fluorescence Cell-Free Homogeneous Dose Retest to Identify Inhibitors of RecA-Intein Splicing Activity. [Related pubchem assays (depositor defined):AID2097, AID2223, AID489010, AID492950]; format: functional
T4 sequence (P9WHJ3 whole entry): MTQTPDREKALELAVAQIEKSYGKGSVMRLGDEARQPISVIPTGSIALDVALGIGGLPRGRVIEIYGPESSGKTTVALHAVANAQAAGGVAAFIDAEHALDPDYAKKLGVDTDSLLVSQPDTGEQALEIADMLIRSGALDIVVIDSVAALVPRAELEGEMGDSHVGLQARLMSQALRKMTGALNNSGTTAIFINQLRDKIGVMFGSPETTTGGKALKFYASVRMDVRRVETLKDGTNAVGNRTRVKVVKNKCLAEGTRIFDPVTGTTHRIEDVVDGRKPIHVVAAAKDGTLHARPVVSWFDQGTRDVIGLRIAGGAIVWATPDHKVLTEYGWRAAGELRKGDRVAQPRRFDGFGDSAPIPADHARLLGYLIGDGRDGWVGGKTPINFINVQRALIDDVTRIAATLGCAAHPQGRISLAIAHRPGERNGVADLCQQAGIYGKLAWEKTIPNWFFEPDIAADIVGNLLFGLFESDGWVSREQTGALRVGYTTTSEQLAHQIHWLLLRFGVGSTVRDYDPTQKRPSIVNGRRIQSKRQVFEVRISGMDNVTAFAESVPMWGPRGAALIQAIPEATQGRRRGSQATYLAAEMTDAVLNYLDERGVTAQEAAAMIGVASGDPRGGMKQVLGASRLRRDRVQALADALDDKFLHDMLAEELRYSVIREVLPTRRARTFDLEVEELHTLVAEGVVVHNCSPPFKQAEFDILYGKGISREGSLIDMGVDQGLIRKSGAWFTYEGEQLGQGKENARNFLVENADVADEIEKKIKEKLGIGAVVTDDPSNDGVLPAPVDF

[8] = target: T5, High affinity choline transporter 1 (Homo sapiens, UniProt Q9GZV3); assay: CHT inhibitors, dose response, cell-based, 5-point CRC, membrane potential dye (AID 504840); format: functional
T5 sequence (Q9GZV3 whole entry): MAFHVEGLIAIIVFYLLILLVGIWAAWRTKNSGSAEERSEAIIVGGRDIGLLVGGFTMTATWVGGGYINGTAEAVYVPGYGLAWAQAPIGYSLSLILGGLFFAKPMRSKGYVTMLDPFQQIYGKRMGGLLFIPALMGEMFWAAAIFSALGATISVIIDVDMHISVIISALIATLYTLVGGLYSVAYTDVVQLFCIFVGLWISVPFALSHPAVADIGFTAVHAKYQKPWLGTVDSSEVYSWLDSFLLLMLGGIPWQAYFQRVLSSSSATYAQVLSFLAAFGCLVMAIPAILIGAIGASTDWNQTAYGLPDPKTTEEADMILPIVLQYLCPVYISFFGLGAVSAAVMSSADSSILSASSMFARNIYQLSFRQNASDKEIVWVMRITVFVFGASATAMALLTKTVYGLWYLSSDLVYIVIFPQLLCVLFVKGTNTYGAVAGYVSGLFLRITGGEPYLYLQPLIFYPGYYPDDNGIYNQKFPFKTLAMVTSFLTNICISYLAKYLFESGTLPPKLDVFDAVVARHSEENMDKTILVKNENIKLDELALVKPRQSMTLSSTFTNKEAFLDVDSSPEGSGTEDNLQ

[9] = target: Cytochrome P450 2C19 (Homo sapiens, UniProt P33261); assay: Cytochrome panel assay with activity outcomes. Panel member name: p450-cyp2c19 Compounds with AC50 equal or less than 10 uM are considered active; format: functional; settings: read-out: AC50
Cytochrome P450 2C19, sequence (P33261 whole entry): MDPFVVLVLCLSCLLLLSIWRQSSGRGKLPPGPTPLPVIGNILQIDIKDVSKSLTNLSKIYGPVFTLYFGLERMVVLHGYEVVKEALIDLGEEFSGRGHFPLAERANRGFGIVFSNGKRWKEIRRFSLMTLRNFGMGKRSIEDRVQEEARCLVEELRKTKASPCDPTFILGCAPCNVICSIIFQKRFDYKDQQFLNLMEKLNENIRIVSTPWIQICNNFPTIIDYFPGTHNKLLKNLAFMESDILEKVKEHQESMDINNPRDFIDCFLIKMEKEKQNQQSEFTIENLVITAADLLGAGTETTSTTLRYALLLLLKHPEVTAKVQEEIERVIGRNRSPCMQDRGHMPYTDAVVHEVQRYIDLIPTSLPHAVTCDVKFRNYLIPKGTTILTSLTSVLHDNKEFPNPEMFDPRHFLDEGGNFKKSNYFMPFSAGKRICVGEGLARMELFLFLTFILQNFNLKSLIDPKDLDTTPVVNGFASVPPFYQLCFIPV

[10] = target: Cytochrome P450 3A4 (Homo sapiens, UniProt P08684);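 further: CYP3A4 tested as one member of a cytochrome P450 panel screen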
Cytochrome P450 3A4, sequence (P08684 whole entry): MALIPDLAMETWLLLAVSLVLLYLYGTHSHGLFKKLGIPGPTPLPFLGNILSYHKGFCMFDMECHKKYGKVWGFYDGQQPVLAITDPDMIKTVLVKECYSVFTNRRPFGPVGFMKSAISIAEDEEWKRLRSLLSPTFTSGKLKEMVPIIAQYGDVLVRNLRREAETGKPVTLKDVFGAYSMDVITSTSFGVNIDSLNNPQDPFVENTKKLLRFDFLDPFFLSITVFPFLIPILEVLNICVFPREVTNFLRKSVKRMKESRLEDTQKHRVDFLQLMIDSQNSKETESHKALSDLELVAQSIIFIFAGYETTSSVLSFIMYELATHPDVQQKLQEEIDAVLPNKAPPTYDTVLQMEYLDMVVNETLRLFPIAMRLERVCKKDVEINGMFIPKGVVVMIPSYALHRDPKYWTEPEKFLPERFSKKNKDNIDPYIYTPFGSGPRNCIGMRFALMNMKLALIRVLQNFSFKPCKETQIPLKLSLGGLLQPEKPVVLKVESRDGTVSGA

[11] = HEp-2 cell cytotoxicity, dose response, cytotoxicity control for RSV inhibitor project, HTS (AID 2410); format: functional; settings: human respiratory syncytial virus
[12] = Luminescence Cell-Based Dose Retest to Confirm Inhibitors of Cancer Stem Cells. [Related pubchem assays (depositor defined):AID2717, AID2721]; format: functional; settings: Homo sapiens

CCn1cnc2cc(NCc3ccc(OC)cc3)ccc21
IC50 [1]: 92.1 µM (active)

COc1ccccc1N1CCN(CCC(=O)Nc2ccc3c(c2)OCO3)CC1
IC50 [2]: > 100 µM (inactive)

CCC(NC(C)c1ccccc1)=C1C(=O)NC(=O)NC1=O (stereo not given)
EC50 [3]: 18 µM (active)
EC50 [4]: > 120 µM (not active)
EC50 [5]: 18.2 µM (active)

COc1ccc(N2C(=O)/C(=C\c3ccco3)N=C2SCC(=O)NC(C)(C)C)cc1Cl
AC50 [6]: > 380 µM (inactive)
EC50 [7]: 20.7 µM (inconclusive)

Cc1cc(C(=O)CSc2n[nH]c(N)n2)c(C)n1-c1cc(F)ccc1F
IC50 [8]: 11.2 µM (active)

COc1ccc(C2C3=C(N=C4SCC(=O)N42)c2ccccc2CC3)cc1OC (stereo not given)
IC50 [2]: > 100 µM (inactive)

CCCCCn1c(CN2CCCCC2C)nc2c1c(=O)n(C)c(=O)n2C (stereo not given)
AC50 [9]: 20 µM (inconclusive)
IC50 [8]: 13.2 µM (active)
AC50 [10]: 5.01 µM (inconclusive)

Cc1ccc(S(=O)(=O)N2CCCCC2)cc1NC(=O)CNCc1ccco1
IC50 [1]: 198 µM (active)

Cc1ccc(CSc2nc3ccccc3c(=O)n2Cc2ccco2)cc1
IC50 [2]: > 100 µM (inactive)

N#C/C(=C\c1cc(Cl)c(OCc2ccc(Cl)cc2)c(Cl)c1)C(N)=O
CC50 [11]: 36.8 µM (active)
AC50 [6]: > 380 µM (inactive)
EC50 [7]: > 380 µM (inconclusive)

COCc1n[nH]c2c1C(c1ccc(OC)cc1)C(C#N)=C(N)O2 (stereo not given)
AC50 [6]: 25.8 µM (active)
EC50 [7]: 6.79 µM (active)

Clc1ccc(-c2cnc3ccccc3n2)cc1
IC50 [2]: 92 µM (inactive)

CCCc1cc(-c2nc(-c3ccc(Cl)cc3)cs2)ccn1
AC50 [12]: 8.69 µM (active)
IC50 [2]: 21 µM (active)

Nc1ccc(-n2nc3ccccc3n2)cc1
EC50 [3]: 31.8 µM (active)
EC50 [4]: 67 µM (active)
EC50 [5]: 5.68 µM (active)

CCOc1ccccc1/C=C/C(=O)NCC(=O)N1CCC(N(C)C2CCCCC2C)CC1 (stereo not given)
IC50 [8]: 14.8 µM (active)

COc1ccc(S(=O)(=O)N2CCCCCC2)cc1NC(=O)Cc1ccccc1F
EC50 [3]: 76.1 µM (active)
EC50 [4]: > 120 µM (not active)
EC50 [5]: > 120 µM (not active)

CCn1c(CSc2nnc(-c3ccncc3)n2CCOC)nc2cc(C(=O)O)ccc21
IC50 [2]: > 100 µM (inactive)

Cc1c(Cl)cccc1N=C([S-])/C(=C(\O)c1ccc(Cl)s1)[n+]1ccccc1
AC50 [6]: 19.8 µM (active)
EC50 [7]: 12.9 µM (active)

Cc1cc(C)c(C)c(S(=O)(=O)Nc2ccc(O)cc2)c1C
IC50 [1]: 45.7 µM (active)

O=C(NCCCn1ccnc1)/C(=C\c1ccc(Br)cc1)NC(=O)c1ccccc1
IC50 [8]: 15.1 µM (active)

Nc1cc2c(cc1N)-c1ccccc1C2
IC50 [1]: 23 µM (active)

CCCCNC(=O)OCC(CC)NC(=O)OCC(C)C (stereo not given)
IC50 [2]: > 100 µM (inactive)

Cc1csc2nc(CNS(=O)(=O)c3ccc4c(c3)CCCC4)cn12
IC50 [2]: > 100 µM (inactive)

CC(CCn1cccn1)NC(=O)CCc1nnc(CCc2ccccc2)o1 (stereo not given)
AC50 [6]: > 380 µM (inactive)
EC50 [7]: > 380 µM (inactive)

COCCCNC(=O)c1ccc(OC)c(OC2CCN(C(C)C)CC2)c1
IC50 [8]: 2.51 µM (active)

CCc1nc2ccccc2c(C(=O)OCC(=O)N(CCOC)c2c(N)n(Cc3ccccc3)c(=O)[nH]c2=O)c1C
IC50 [2]: > 100 µM (inactive)

O=C(Cc1ccc(Cl)cc1)N/N=C/c1ccc(O)c(O)c1
IC50 [1]: 19.7 µM (active)

COc1cc(/C=N/NC(=O)c2cn(-c3cccc(C)n3)cn2)ccc1O
IC50 [1]: 36.1 µM (active)

COc1ccccc1N1CCN(/N=C/c2ccc(O)cc2O)CC1
IC50 [1]: 48 µM (active)

C[N+](C)(C)CC=O [BETAINE ALDEHYDE CHLORIDE]
IC50 [8]: 15.1 µM (active)
